Reference: paper PMC8808171, “Nonselective TRPC channel inhibition and suppression of aminoglycoside-induced premature termination codon readthrough by the small molecule AC1903” (The Journal of Biological Chemistry, 2022)

System: TC-71 cells (TP53 R213X)
Test: G418-induced PTC readthrough (full-length p53, capillary electrophoresis Western) in TC-71 cells
Type: cell-based
Settings: without G418
Text: Variation in PTC readthrough response has been reported among individuals or cell lines with different nonsense mutations. Although this in part highlights the importance of the stop codon and its surrounding sequence as well as the physical location of the nonsense mutation in the mRNA sequence, understanding the contribution of other underlying genetic variations becomes more complicated. To rule out the effect of the sequence and position of nonsense mutations on response variation to potential PTC readthrough modulators, we studied two cancer cell lines, DMS-114 and TC-71, with identical homozygous nonsense mutation R213X in their TP53 gene. […] To find out whether the reduced response to G418 in TC-71 cells was associated with lower intracellular levels of G418, we measured concentrations of G418 in both cell lines at 0, 8 and 24 h post exposure to G418 (100 μg/ml).
Figure 1 Effect of TRPC inhibitors on G418 induced PTC readthrough. A, DMS-114 and TC-71 cell lines with homozygous TP53 nonsense mutation (R213X) were exposed to indicated concentrations of G418 for 24 h and p53 levels (full-length, FL-p53; truncated, TR-p53) were measured. B, 100 μg/ml G418 was added to DMS-114 and TC-71 cells and its total intracellular levels were measured at indicated time points (n = 5; data normalized to the highest response in each experiment; bars represent mean ± SD). […]

SMILES: c1ccc(Cn2c(NCc3ccco3)nc3ccccc32)cc1 [AC1903]
- effect on PTC readthrough of AC1903 alone: did not affect PTC readthrough
